From patent US20130266636A1, “METHODS FOR BLOCKING CELL PROLIFERATION AND TREATING DISEASES AND CONDITIONS RESPONSIVE TO CELL GROWTH INHIBITION” (THE REGENTS OF THE UNIVERSITY OF CALIFORNIA, priority 2010, published 2013)
“Also recorded” adds a separate entry of the source.

Tests used:
[1] = test system: U-87 human glioblastoma cells; test: Cells in pro-metaphase in orthotopic brain tumor xenografts; assay type: in vivo, mice; conditions: systemic KG5 50 mg/Kg, after three days
Protocol: Phosphorylation of CRAF on serine 338 has been linked to cell proliferation survival as well as breast cancer progression^9-11,14-16. To determine whether KG5 could similarly regulate phospho-5338 RAF in tumors, we analyzed orthotopic […] and brain tumor tissues for the presence of this marker before or after systemic delivery of the drug.
Tumors were generated by injection of RFP-labeled U-87 human glioblastoma cells (10^5 tumorcells in 2 μl of sterile PBS) into the brain of 6-8 week old female nude mice. Tumors were established for 3 weeks before beginning dosing. Mice were dosed with vehicle (10% HS-15) or 50 mg/kg KG5 (i.p. bid) for 3 days prior to harvest. Alternatively, U-87 cells stably expressing WT CRAF or the phospho-mimetic S338D CRAF mutant were injected into the brain of 6-8 week old female nude mice. Brains were harvested at day 15 and fluorescence images recorded using the IVIS-200™ imaging system (Xenogen Corp., Hopkinton, Mass.). Tumor sizes were measured as a function of fluorescence intensity using the ROI function of the IVIS Living Image Software. […]

[2] = molecular target: RAF dimerization (BRAF and CRAF) (Homo sapiens, UniProt P04049); test: RAF dimerization, immunoblot of BRAF and CRAF immunoprecipitates from A549 cells; assay type: cell-based
Protocol: FIG. 11 illustrates immunoblot analysis of BRAF and CRAF immunoprecipitates from A549 cells treated with PD0325901, Sorafenib, L-779450, PLX4720, KG5 or KG1.
(§1) Immunoprecipitation and Immunoblot Analysis Cells were lysed in either NP40 lysis buffer (150 mM NaCl, 50 mM Tris Base pH 7.4, 1% NP40) or RIPA buffer (50 mM Tris pH 7.4, 100 mM NaCl, 0.1% SDS) supplemented with complete protease inhibitor mixture (Roche), 50 mM NaF and 1 mM Na3VO4 and centrifuged at 13,000×g for 10 min at 4° C. Protein concentration was determined by BCA assay. […] of protein were immunoprecipitated with […] of anti-Flag (Sigma), anti-CRAF (BD Pharmingen), anti-Plk1 (Abcam), anti-γ-Tubulin (sigma) or anti-cenpF (Santa Cruz) antibodies overnight at 4° C. followed by capture with 25 μl of protein A/G (Pierce). Beads were washed five times, eluted in boiling Laemmli buffer, resolved on 10% SDS-PAGE and immunoblotting was performed with anti-Plk1 antibody (Abcam), anti-CRAF antibody (BD Pharmingen), anti-Aurora A (Abcam), anti-phospho-S338 CRAF (Cell Signaling), anti-phospho-T210 Plk1 or anti-phospho-T288 Aurora A (Cell signaling) diluted 1:1000. For immunoblot analysis, […] of protein was boiled in […]

Plk1 = Plk1 activity in tumor cells arrested in pro-metaphase; assay type: cell-based, human; conditions: compared to cells arrested with nocodazole or paclitaxel
Text: FIG. 46. CRAF regulates Plk1 activity and localization. FIG. 46(a) Plk1 kinase activity assay performed in WT and CRAF−/− MEFs. Error bars represent s.d. (n=3); * two tailed p value=0.029 using Mann Whitney U test. FIG. 46(b) Immunoblot analysis of XPA-1 cells asynchronous or arrested in mitosis by treatment with KG5, nocodazole or paclitaxel (referred to as Ncdzl and Ptxl respectively). pPlk1 refers to phospho-T210 Plk1 and pHH3 refers to phospho-Histone H3. Data are representative of three independent experiments. FIG. 46(c) Plk1 kinase activity assay performed in HCT-116 cells treated with nocodazole or nocodazole and KG5. Error bars represent s.d. ([…]); * two tailed p value=0.002 using Mann Whitney U test. FIG. 46(d) Immunoblot analysis of CenpF immunoprecipitates from HCT-116 cells untreated or treated with KG5. Data are representative of three independent experiments. FIG. 46(e) Confocal microscopy images of XPA-1 cell at prophase (upper panel), pro-metaphase control untreated (middle panel) or treated with KG5 (lower panel). Cells were stained for phospho-T210 Plk1 (in green), a tubulin (in red) and DNA (TOPRO-3™ in blue). […]
Plk1 enzymatic activity in cell lysates from WT, CRAF−/− MEFs, HCT-116 cells expressing WT or S338D CRAF and HCT-116 cells treated with the allosteric RAF inhibitor KG5 was determined using the Plk1 kinase kit from MBL and following the manufacturer's protocol.

c-Kit = c-Kit (Homo sapiens, UniProt P10721); conditions: cited from earlier work
CRAF = CRAF (Homo sapiens, UniProt P04049); test: Phospho-S338 CRAF immunoblot in XPA-1 cells; assay type: cell-based; parameters: total CRAF and total MEK of lysates from XPA-1 cells treated with PD0325901, Sorafenib, L-779450, PLX4720, KG5 or KG1; endogenous in cells; host or cells: XPA-1
Protocol: FIGS. 6 and 7 illustrate immunoblot analysis of CRAF immunoprecipitated from XPA-1 cells treated with KG5 and KG38.
FIG. 13 illustrates immunoblot analysis of phospho-5338 CRAF, phospho-MEK, total CRAF and total MEK of lysates from XPA-1 cells treated with PD0325901, Sorafenib, L-779450, PLX4720, KG5 or KG1.
as §1

Chain of CRAF (P04049 whole entry): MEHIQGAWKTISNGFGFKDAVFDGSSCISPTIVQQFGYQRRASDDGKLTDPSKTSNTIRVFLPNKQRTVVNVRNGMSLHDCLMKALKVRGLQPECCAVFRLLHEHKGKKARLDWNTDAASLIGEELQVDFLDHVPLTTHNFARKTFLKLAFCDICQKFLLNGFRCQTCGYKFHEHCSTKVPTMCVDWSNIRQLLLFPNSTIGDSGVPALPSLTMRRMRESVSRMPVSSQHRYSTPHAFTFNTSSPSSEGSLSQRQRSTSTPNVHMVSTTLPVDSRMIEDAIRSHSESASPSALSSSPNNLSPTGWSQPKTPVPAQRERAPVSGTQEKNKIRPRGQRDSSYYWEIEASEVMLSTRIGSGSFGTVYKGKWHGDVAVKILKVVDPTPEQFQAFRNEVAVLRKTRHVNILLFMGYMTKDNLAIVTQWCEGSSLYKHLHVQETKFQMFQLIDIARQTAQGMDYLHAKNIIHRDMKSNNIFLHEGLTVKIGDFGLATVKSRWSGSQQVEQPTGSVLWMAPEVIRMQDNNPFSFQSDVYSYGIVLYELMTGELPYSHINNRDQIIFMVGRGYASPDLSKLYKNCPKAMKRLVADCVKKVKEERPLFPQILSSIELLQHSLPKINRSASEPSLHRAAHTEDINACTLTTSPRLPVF
Chain of RAF dimerization (BRAF and CRAF) (P04049 whole entry): as above
Chain of c-Kit (P10721 26-976): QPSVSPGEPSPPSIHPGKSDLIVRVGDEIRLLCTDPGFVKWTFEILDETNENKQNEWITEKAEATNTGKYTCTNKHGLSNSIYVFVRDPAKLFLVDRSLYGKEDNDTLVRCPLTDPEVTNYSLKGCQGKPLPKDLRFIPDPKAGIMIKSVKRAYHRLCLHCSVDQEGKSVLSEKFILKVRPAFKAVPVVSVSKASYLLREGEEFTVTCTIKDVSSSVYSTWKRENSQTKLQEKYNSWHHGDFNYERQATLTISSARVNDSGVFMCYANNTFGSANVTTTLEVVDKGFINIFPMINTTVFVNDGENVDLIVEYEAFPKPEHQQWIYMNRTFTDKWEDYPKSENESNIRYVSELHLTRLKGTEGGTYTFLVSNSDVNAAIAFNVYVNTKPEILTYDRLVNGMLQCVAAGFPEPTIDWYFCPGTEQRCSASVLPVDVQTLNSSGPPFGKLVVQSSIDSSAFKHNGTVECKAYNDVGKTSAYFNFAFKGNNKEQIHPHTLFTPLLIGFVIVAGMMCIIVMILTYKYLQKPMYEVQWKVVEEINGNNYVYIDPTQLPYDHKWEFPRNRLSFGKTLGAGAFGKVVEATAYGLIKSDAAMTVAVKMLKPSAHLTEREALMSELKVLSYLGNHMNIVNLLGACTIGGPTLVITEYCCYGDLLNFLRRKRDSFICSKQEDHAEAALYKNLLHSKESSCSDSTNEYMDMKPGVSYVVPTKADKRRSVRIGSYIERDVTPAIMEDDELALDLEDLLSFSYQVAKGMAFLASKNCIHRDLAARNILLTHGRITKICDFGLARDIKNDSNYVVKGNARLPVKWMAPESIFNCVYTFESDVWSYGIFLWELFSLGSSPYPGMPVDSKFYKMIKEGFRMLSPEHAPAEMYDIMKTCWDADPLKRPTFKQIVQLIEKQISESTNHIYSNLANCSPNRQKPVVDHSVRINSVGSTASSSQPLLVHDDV

With `CSc1nc(N)cc(Oc2ccc(-c3nnc(Nc4cccc(C(F)(F)F)c4)[nH]3)cc2)n1` [KG5] as the compound, how does the “cells at pro-metaphase in orthotopic brain tumor tissues” value [1] read?
The value was “accumulation of cells at pro-metaphase”.

What about the RAF dimerization [2] of the same compound?
The RAF dimerization was “prevents RAF dimerization”.

And the Plk1 activity (Plk1)?
The Plk1 activity was “decreased Plk1 activity”.

What about the “inhibition of c-Kit” value (c-Kit) of the same compound?
The value was “inhibits”.

What about the “serine 338 phosphorylation on CRAF” value (CRAF) of the same compound?
The value was “prevent; also recorded: inhibits phosphorylation of CRAF on serine 338”.
